Assay results from patent US20090170939A1, “Use of Fenofibrate or a Derivative Thereof for Preventing Diabetic Retinopathy” (Laboratoires Fournier S.A., priority 2005, published 2009).

Tested on: diabetic retinopathy in patients with type 2 diabetes
Assay: FIELD study: laser treatment for diabetic retinopathy (tertiary outcome)
Assay type: in vivo, human
Details: follow-up more than 5 years
Description: As fibrates are known to correct the typical dyslipidaemia of diabetes, their role in cardiovascular risk reduction in diabetes may be especially important. A study called Fenofibrate Intervention and Event Lowering in Diabetes (FIELD) has been carried out which study is a multicentre, double-blind, placebo-controlled trail evaluating the effects on coronary morbidity and mortality of long-term treatment with fenofibrate to elevate high-density lipoprotein (HDL) cholesterol levels and lower triglyceride (TG) levels in patients with type 2 diabetes and total blood cholesterol between 3 and 6.5 mmol/L (115 and 250 mg/dL) at study entry. In type 2 diabetes, rates of coronary heart disease (CDH) are 3 to 4 times higher than those of persons without diabetes at any given level of blood cholesterol, and at any given age. […] Further, people with type 2 diabetes have both higher in hospital mortality after myocardial infarction (MI) and a poorer outcome in the subsequent years, losing on average between 5 and 10 years of life expectancy.
The study was is randomized, double-blind, placebo-controlled parallel-group trial among middle-aged to elderly people with type 2 diabetes mellitus considered to be at increased risk of CHD. Those with and without pre-existing vascular disease or other lipid abnormalities, such as low HDL cholesterol and elevated TG, were eligible, provided the total blood cholesterol level at screening fell between 3.0 and 6.5 mmol/L (about 115-250 mg/dL) plus either a total-to-HDL cholesterol ratio of >4.0 or a blood TG level >1.0 mmol/L (88.6 mg/dL). The study has been conducted in 63 clinical centres in Australia (39), Finland (9) and New Zealand (15).
The underlying principle guiding recruitment of patients into the study was that of clinical uncertainty: that is, patients were only to be considered if the patients' treating physicians were substantially uncertain about the value of lipid-modifying therapy for that particular individual and felt that there was no indication for lipid-modifying therapy. […]

## CC(C)OC(=O)C(C)(C)Oc1ccc(C(=O)c2ccc(Cl)cc2)cc1 [Fenofibrate, 1-methylethyl ester (isopropyl ester) of fenofibric acid]
Fenofibrate 200 mg comicronized, one capsule daily, type 2 diabetes
  Patients with laser treatment for diabetic retinopathy (one or more laser treatments), %: 3.6%
Fenofibrate 200 mg daily
  Incident cases (first laser treatment for retinopathy post-randomisation), %: 2.3%
  Prevalent cases (all reported laser treatments post-randomisation), %: 7.3%
